Experimental data: US20260048151A1, “HEMICYANINE PUSH-PULL DYES BASED ON CHROMENE ELECTRON DONORS” (UNIVERSITY OF CONNECTICUT, priority 2022, published 2026)
Values joined by “and” are separate entries in the source; they are usually repeats but may differ in a detail not shown here. Equal values may be shown once.

Tested on: intact mouse hearts
Experiment: Optical mapping of cardiac electrical activity in isolated mouse hearts
Description: All animal handling and procedures were performed in accordance with the guidelines from Directive 2010/63/EU of the European Parliament on the protection of animals used for scientific purposes. The experimental protocol was approved by the Italian Ministry of Health (protocol number 944/2018-PR). Transgenic mice (ChR2-mhc6-cre+) with cardiomyocyte-specific expression of Channelrhodopsin-2 (ChR2, H134R variant) were generated and employed in this study. Wild-type mice (C57BL/6J) and ChR2-mhc6-cre+ mice (6 months old) were heparinized (0.1 mL at 5000 units/mL) and anesthetized by inhaled isoflurane (5%). The excised heart was immediately bathed in Krebs-Henseleit (KH) solution and cannulated through the aorta. The KH buffer contained (in mM): 120 NaCl, 5 KCl, 2 MgS2 O4-7H2O, 20 NaHCO3, 1.2 NaH2PO4—H2O, 1.8 CaCl2 and 10 glucose, pH 7.4 when equilibrated with carbogen. Cardiac contraction was inhibited during the entire experiment with 1 μM blebbistatin (Enzo Life Sciences, Farmingdale, NY, USA) in the solution. The cannulated heart was perfused through the aorta (using a horizontal-Langendorff perfusion system) with the KH solution and then transferred to a custom-built optical mapping chamber at a constant flow of 2.5 mL/min at (36±0.5)° C. Two platinum electrodes were placed below the heart for monitoring cardiac electrical activity via electrocardiogram (ECG). 1 mL of perfusion solution containing the voltage sensitive dye (VSD; ElectroFluor730p: 10 μM; di-4-ANBDQPQ: 6 μg/mL) was bolus injected into the aorta. All the experiments were performed at (36±0.5° C.) within 1 hour after dye loading to avoid potential re-distribution of the dye and accumulation of phototoxic by-products.
Optical mapping was performed using a custom-made mesoscope. Stained mouse hearts were illuminated in a wide-field configuration using a 2× objective (TL2x-SAP, Thorlabs, Newton, NJ, USA) and employing four different LED operating at a wavelength centred at 730 nm, 625 nm, 590 nm and 530 nm (M730L5, M625L3, M590L4 and M530L4 Thorlabs, Newton, NJ, USA) followed by excitation band-pass filters at 730/39 nm, 640/40 nm, 589/15 nm (FF01-730/39-25, FF01-640/40-25, FF01-589/15-25, Semrock) and 530/43 nm (MF530-43, Thorlabs) respectively. di-4-ANBDQPQ stained hearts were excited at 625 nm (0.875 mW/mm^2) and a dichroic beam splitter (FF685-Di02-25×36, Semrock) followed by a band-pass filter at 775/140 nm (FF01-775/140-25, Semrock) was used for collecting the emitted fluorescent signal. […] Light intensities were measured at sample site using a photodiode sensor (PD300-3W, Ophir Optronics, Jerusalem, Israel). […]

SMILES: CCCCCCN(CCCCCC)c1ccc2c(c1)OCC(/C=C/c1c(F)c[n+](CCC[N+](CC)(CC)CC)c3ccccc13)=C2.[Br-].[Br-] [2c]
- sensitivity to an AP (APA), % decrease in fluorescence at the peak of an AP (730 nm excitation, compared with di-4-ANBDQPQ): higher than that of di-4-ANBDQPQ
- differences in AP kinetics (APRS, APD50, APD70, APD90) (compared with di-4-ANBDQPQ, student's t-test, listed as ElectroFluor730p): no statistically significant differences in AP parameters excepting AP Amplitude
- inversion point (isosbestic point) of sensitivity (excitation 730, 590, 530 nm, exponential fit, listed as ElectroFluor730p): ≈ 571 nm and ~571 nm
- pharmacological effects of the VSD (isolated mouse hearts): no measurable pharmacological effects
